Measured values: patent US20230123654A1 (priority 2020, published 2023)
“And” between values parts separate entries of the source, which are not always exact repeats. Equal entries are not always repeated. Where two headings read alike, the source gives them in different places.

How the values were obtained:
[1] = molecular target: T1, Nav1.5 (Homo sapiens, UniProt Q14524)
[2] = test system: Nav1.5 transfected cells (CHO); type: cell-based, Chinese hamster
[3] = molecular target: T1, Nav1.5; type: cell-based
[4] = molecular target: T1, Nav1.5; type: cell-based; remark: listed apart in the source
[5] = molecular target: Nav1.5 (SCN5A) (Homo sapiens, UniProt Q14524); type: cell-based
[6] = test system: rat diaphragm muscle; note: test concentration or dose not given here
[7] = molecular target: T2, Nav1.4 (Homo sapiens, UniProt P35499); type: cell-based; for Mean block of INa: test concentration or dose not given here
[8] = molecular target: Nav1.4 F1586A (Homo sapiens, UniProt P35499, F1586A); type: cell-based; for Mean block of INa: test concentration or dose not given here
[9] = molecular target: Nav1.4 WWWW (Homo sapiens, UniProt P35499, F432W/I1280W/I1583W/V787W); type: cell-based; note: test concentration or dose not given here
[10] = molecular target: T2, Nav1.4; type: cell-based; remark: listed apart in the source
[11] = molecular target: Nav1.4 P1158S (Homo sapiens, UniProt P35499, P1158S); type: cell-based
[12] = molecular target: Nav1.4 DIV-S6 peptide ([…]) (Homo sapiens, UniProt P35499); type: binding
[13] = test system: gramicidin-HEK cells; type: cell-based, human
[14] = test system: gramicidin containing DC22:1PC LUVs
[15] = test system: Nav1.5 transfected cells (CHO)
[16] = test system: Nav; settings: cited from earlier work
[17] = molecular target: Nav1.1 pore-mutant (F1763A-LA mutant) (Homo sapiens, UniProt P35498, F1774A); settings: cited from earlier work
[18] = molecular target: T1, Nav1.5; type: cell-based; remark: listed apart in the source
[19] = molecular target: T1, Nav1.5; type: cell-based; remark: listed apart in the source
[20] = molecular target: T2, Nav1.4; settings: read-out: resting IC50 on Nav1.4; cited from earlier work
[21] = molecular target: T1, Nav1.5; type: cell-based; remark: listed apart in the source
[22] = test system: TTX-sensitive channels; settings: cited from earlier work

Nav1.4 WWWW, sequence (P35499 whole entry F432W/V787W/I1280W/I1583W, looked up): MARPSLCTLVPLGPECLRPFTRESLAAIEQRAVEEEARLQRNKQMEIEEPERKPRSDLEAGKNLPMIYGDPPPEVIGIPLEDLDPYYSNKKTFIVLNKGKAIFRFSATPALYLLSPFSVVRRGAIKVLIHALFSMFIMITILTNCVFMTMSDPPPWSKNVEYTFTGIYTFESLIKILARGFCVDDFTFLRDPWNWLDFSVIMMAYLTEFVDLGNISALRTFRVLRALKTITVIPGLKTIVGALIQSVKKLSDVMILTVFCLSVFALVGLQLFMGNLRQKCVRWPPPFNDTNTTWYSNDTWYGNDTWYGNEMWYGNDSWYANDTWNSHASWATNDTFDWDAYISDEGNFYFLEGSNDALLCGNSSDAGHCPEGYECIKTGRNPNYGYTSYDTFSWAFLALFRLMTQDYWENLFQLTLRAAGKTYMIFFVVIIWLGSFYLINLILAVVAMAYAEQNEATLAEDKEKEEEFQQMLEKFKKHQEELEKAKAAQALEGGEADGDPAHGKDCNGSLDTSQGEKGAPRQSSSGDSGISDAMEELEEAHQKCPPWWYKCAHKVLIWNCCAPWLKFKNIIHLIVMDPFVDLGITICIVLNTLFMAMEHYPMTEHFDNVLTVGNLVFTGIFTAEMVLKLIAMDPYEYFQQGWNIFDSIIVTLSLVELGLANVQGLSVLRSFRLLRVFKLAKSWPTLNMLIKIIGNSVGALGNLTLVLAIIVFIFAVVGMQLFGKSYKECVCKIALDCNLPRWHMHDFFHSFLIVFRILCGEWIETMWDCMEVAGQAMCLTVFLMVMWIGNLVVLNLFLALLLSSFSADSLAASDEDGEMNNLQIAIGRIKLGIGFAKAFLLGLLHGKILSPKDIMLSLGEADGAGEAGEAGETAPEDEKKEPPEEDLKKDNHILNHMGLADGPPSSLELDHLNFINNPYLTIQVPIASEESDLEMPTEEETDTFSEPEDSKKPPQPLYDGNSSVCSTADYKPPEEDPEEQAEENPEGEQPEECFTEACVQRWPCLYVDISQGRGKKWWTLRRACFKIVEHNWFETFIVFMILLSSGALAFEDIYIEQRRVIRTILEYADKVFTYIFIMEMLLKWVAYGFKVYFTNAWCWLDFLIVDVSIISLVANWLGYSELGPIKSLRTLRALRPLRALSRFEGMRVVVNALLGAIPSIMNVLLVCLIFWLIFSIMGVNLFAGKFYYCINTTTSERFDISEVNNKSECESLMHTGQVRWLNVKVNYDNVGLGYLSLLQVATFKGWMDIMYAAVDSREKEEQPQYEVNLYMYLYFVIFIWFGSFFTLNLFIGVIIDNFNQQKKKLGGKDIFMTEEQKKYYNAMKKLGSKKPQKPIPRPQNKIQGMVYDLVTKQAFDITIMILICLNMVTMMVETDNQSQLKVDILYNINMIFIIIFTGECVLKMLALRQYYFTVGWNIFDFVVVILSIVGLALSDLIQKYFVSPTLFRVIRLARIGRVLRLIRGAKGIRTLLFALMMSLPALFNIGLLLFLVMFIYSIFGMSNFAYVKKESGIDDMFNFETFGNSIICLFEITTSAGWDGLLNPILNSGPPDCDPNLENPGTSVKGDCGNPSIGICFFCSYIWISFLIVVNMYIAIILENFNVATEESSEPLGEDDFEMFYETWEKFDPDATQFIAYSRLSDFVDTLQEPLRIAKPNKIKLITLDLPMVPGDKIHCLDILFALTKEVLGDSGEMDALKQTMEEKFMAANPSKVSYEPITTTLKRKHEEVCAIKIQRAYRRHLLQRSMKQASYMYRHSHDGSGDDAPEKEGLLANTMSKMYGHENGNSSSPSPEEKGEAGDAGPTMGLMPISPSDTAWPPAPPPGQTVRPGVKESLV
Nav1.4 F1586A, sequence (P35499 whole entry F1586A, looked up): as the sequence (P35499 whole entry F432W/V787W/I1280W/I1583W, looked up) above, with W432F, W787V, W1280I, W1583I, F1586A counted along it
T2 sequence (P35499 whole entry, looked up): as the sequence (P35499 whole entry F432W/V787W/I1280W/I1583W, looked up) above, with W432F, W787V, W1280I, W1583I counted along it
T1 sequence (Q14524 whole entry): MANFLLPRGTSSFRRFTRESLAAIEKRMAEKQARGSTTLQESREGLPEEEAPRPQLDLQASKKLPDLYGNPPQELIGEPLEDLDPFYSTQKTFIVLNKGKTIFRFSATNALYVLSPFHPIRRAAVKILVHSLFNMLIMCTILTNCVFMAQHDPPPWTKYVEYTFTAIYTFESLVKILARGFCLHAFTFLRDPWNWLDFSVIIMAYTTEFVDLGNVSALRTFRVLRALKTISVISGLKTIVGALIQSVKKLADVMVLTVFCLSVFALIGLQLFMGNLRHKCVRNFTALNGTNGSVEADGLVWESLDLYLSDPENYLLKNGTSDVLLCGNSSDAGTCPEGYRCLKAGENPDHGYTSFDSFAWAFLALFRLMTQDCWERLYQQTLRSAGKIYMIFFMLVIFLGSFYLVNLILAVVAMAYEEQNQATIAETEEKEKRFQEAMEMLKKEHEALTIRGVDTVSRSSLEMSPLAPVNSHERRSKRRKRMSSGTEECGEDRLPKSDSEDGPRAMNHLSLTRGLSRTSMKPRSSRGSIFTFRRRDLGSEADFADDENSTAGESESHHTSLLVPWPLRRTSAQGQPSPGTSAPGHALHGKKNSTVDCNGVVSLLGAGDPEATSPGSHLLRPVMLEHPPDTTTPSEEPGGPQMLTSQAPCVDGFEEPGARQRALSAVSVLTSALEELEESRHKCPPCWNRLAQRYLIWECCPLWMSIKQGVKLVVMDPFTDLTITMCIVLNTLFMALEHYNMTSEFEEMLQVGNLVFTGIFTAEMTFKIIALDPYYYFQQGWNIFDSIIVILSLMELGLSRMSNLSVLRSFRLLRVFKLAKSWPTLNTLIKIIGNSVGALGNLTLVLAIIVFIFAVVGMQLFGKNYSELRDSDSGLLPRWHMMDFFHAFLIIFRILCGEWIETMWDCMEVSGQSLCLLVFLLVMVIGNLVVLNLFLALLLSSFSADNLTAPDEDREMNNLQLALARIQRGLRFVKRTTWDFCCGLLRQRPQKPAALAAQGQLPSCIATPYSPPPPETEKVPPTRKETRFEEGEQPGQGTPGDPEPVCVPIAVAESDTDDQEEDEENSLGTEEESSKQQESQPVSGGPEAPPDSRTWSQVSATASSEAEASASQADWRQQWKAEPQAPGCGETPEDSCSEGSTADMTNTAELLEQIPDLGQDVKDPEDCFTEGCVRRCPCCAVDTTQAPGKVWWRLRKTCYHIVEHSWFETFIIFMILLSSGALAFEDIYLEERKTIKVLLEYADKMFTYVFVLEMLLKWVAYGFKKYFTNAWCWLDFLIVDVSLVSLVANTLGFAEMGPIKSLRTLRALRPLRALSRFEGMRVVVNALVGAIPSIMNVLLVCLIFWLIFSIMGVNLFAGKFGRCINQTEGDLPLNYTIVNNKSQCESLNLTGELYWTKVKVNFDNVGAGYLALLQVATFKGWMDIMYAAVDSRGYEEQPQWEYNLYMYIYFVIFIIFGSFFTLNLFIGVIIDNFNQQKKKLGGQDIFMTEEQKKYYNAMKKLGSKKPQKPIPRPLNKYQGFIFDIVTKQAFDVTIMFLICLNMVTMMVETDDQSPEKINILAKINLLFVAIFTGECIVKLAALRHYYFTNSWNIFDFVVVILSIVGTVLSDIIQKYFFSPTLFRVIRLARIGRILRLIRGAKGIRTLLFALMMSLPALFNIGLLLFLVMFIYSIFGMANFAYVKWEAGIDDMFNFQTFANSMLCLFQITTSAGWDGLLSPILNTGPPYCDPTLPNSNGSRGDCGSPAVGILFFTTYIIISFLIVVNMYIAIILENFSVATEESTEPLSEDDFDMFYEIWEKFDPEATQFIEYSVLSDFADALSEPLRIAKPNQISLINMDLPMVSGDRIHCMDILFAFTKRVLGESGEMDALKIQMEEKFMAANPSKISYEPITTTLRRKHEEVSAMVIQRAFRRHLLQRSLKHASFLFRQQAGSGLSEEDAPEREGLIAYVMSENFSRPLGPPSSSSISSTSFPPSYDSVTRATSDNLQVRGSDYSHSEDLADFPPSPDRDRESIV
Nav1.4 P1158S, sequence (P35499 whole entry P1158S, looked up): as the sequence (P35499 whole entry F432W/V787W/I1280W/I1583W, looked up) above, with W432F, W787V, P1158S, W1280I, W1583I counted along it

For `CC[C@H]1OC(=O)[C@H](C)[C@@H](O[C@H]2C[C@@](C)(OC)[C@@H](O)[C@H](C)O2)[C@H](C)[C@@H](O[C@@H]2O[C@H](C)C[C@H](N(C)C)[C@H]2O)[C@](C)(O)C[C@@H](C)CN(C)[C@H](C)[C@@H](O)[C@]1(C)O` [Azithromycin], the “late sodium current compared to control” value [1] was “an increase in late sodium current”.
With `C=C(C)[C@@H]1CCC(C)=C[C@H]1c1c(O)cc(CCCCC)cc1O` [CANNABIDIOL, 2-[(1R,6R)-3-Methyl-6-(1-methylethenyl)-2-cyclohexen-1-yl]-5-pentyl-1,3-benzenediol] the “ROS levels at high glucose” value [2] was “complete reduction of ROS levels”, the “GV − z (slope)” value [3] was 4.7 ± 0.9 and 3.7 ± 0.6 and 2.8 ± 0.2 and 3.1 ± 0.2 and the “Percentage of persistent INa” value [4] was 0.93 ± 0.05% and 1.04 ± 0.11% and 0.88 ± 0.07%. For the same compound, the “activation and steady-state inactivation curves” value [5] was “rescues the activation and steady-state inactivation curves”, the late sodium current [5] was “indistinguishable from control” and the contraction amplitude [6] was ~60 % of control. The “Mean block of INa” value [7] was 42.4±6.4% and ~45%, the “Mean block of INa” value [8] was 25.3±4.8% and ~25% and the “difference between inhibition of WT vs. F1586A” value [8] was 1.5 fold. For the same compound, the “Mean block of INa” value [9] was 6.4±1.3%, the “SSFI V1/2” value [10] was −72.7±3.0 mV and the SSFI z [10] was −2.8±0.4. For the same compound, the “activation V1/2” value [10] was −14.3±4.2 mV, the activation z [10] was 2.8±0.3 and the “SSFI V1/2” value ([11]; pH6.4) was −81.7±2.3 mV. For the same compound, the SSFI z ([11]; pH6.4) was 2.7±0.3, the “activation V1/2” value ([11]; pH6.4) was −21.1±3.3 mV and the activation z ([11]; pH6.4) was 2.5±0.2. For the same compound, the “persistent currents, Percentage” value ([11]; pH6.4) was 5.4±1.2%, the “SSFI V1/2” value ([11]; pH7.4) was −83.0±2.6 mV and the SSFI z ([11]; pH7.4) was 3.0±0.3. For the same compound, the “activation V1/2” value ([11]; pH7.4) was −32.7±3.6 mV, the activation z ([11]; pH7.4) was 2.9±0.2 and the “persistent currents, Percentage” value ([11]; pH7.4) was 1.0±0.2%. The “peak heat of titration” value [12] was 1022.2 ± 160.6 kcal/mol, the gramicidin currents [13] was “slightly altered gramicidin currents” and the “gramicidin signal (fluorescence quench)” value [14] was “alters the gramicidin signal”. For the same compound, the “effect on reduction in cell viability at high glucose” value [15] was “attenuated the reduction in cell viability”, the “Azithromycin-induced late sodium current” value [1] was “the late current was reduced” and the “state-dependence in Nav inhibition” value [16] was “approximately 10 fold”. The IC50 ([16]; read-out: IC50, inactivated Nav) was roughly 1 µM, the IC50 ([16]; read-out: IC50, resting Nav) was roughly 10 µM and the “drop in potency in pore-mutant” value [17] was roughly 2.5 fold.
With `Nc1ncnc2c1nc(Sc1ccc(Cl)cc1)n2[C@@H]1O[C@@H]2COP(=O)([O-])O[C@H]2[C@H]1O.[Na+]` [CPT-cAMP, 8-(4-chlorophenylthio) adenosine-3′,5′-cyclic monophosphate] the “GV − V1/2 (Steady state activation)” value [18] was −25.2 ± 0.5 mV, the “GV − z (slope)” value [18] was 2.5 ± 0.1 and the “SSFI V1/2” value [19] was −79.4 ± 1.1 mV. For the same compound, the “SSFI − z (slope)” value [19] was −3.0 ± 0.1 and the “Percentage of persistent INa” value [4] was 2.20 ± 0.08%.
With `C[C@]12CC[C@@H]3c4ccc(O)cc4CC[C@H]3[C@@H]1CC[C@@H]2O` [E2, 17β-Estradiol] the “GV − z (slope)” value [18] was 3.1 ± 0.1 and 3.0 ± 0.1 and 2.4 ± 0.1 and 3.5 ± 0.1 and 2.8 ± 0.1 and 3.6 ± 0.1 and 3.4 ± 0.2 and the “Percentage of persistent INa” value [4] was 0.85 ± 0.06% and 0.91 ± 0.06% and 1.92 ± 0.09% and 0.89 ± 0.06% and 1.73 ± 0.03% and 0.95 ± 0.09% and 0.90 ± 0.11%.
For `CCN(CC)CC(=O)Nc1c(C)cccc1C` [Lidocaine, lidocaine], the “Mean block of INa” value [7] was 60.6±2.3% and ~60%, the “Mean block of INa” value [8] was 24.6±9.3% and ~20% and the “difference between inhibition of WT vs. F1586A” value [8] was 3 fold. The “Mean block of INa” value [9] was 53.6±11.7%, the “peak heat of titration” value [12] was 968.0 ± 23.4 kcal/mol and the IC50 [20] was 1100 µM.
For `OC[C@@H](O)[C@@H](O)[C@H](O)[C@H](O)CO` [Mannitol, mannitol], the “GV − V1/2 (Steady state activation)” value [3] was −39.2 ± 1.6 mV, the “GV − z (slope)” value [3] was 5.1 ± 0.8 and the “SSF[I] − V1/2 (Steady State Fast Inactivation)” value [21] was −93.6 ± 2.3 mV. For the same compound, the “SSF[I] − z (slope)” value [21] was −2.1 ± 0.3 and the “cell viability, agent alone” value [15] was “no significant effect on the cell viability”.
With `CCCCCCCCCCCCCC(=O)O[C@@H]1[C@@H](C)[C@@]2(O)[C@@H](C=C(CO)C[C@]3(O)C(=O)C(C)=C[C@@H]23)[C@@H]2C(C)(C)[C@]12OC(C)=O` [PMA] the “GV − V1/2 (Steady state activation)” value [18] was −22.6 ± 1.6 mV, the “GV − z (slope)” value [18] was 2.5 ± 0.1 and the “SSFI V1/2” value [19] was −76.4 ± 1.7 mV. The “SSFI − z (slope)” value [19] was −2.9 ± 0.2 and the “Percentage of persistent INa” value [4] was 2.18 ± 0.06%.
In the case of `NC1=N[C@H](O)[C@H]2[C@H]3O[C@]4(O)O[C@@H]([C@@H](O)[C@@]2(N1)[C@@H]4O)[C@]3(O)CO` [TTX, tetrodotoxin], the contraction amplitude [6] is listed as ~20 % of control and the IC50 [22] is listed as 0.01 to 0.03 µM.
For `CC1(C)CC(O)CC(C)(C)N1[O]` [Tempol], the “ROS levels at high glucose” value [2] was “complete reduction of ROS levels”, the “GV − z (slope)” value [3] was 3.9 ± 0.6 and 4.4 ± 0.5 and 2.6 ± 0.2 and 4.0 ± 0.6 and 2.2 ± 0.1 and 4.3 ± 1.0 and 3.4 ± 0.3 and the “effect on reduction in cell viability at high glucose” value [15] was “showed similar results to CANNABIDIOL”.
In the case of `O=C(NCC1CCCCN1)c1cc(OCC(F)(F)F)ccc1OCC(F)(F)F` (centres unmarked) [flecainide], the “Mean block of INa” value [7] is reported as 64.6±6.0% and the “Mean block of INa” value [9] is reported as 76.4±11.3%.
In the case of Triton X100 [TX100], the gramicidin currents [13] is reported as “altered the cationic gramicidin currents across all potentials”.
